Reference: BindingDB's records for doi:10.7270/Q2SF2TM0 (The Scripps Research Institute Molecular Screening Center, 2009)

Biological target: Beta-lactamase (Pseudomonas aeruginosa, UniProt Q79MP6)
Assay: inhibition of IMP-1 beta-lactamase activity – biochemical, epi-absorbance, selectivity assay for VIM-2 inhibitor project, dose response (AID 1920)

Chain of Beta-lactamase (Q79MP6 whole entry): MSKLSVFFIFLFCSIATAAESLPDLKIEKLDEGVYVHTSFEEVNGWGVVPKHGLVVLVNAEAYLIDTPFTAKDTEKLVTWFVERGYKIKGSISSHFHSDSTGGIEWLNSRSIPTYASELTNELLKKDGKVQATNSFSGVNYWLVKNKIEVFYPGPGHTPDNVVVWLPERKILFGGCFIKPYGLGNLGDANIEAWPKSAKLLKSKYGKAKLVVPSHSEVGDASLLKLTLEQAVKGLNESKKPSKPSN

COc1ccc(OC)c(C=NNC(=O)Cc2c(C)[nH][nH]c2=O)c1 [SMR000147372]
IC50: > 59.6 µM

COc1ccc(OC)c(C2C(C(=O)c3ccco3)C(=O)C(=O)N2Cc2cccnc2)c1 (configuration not stated) [2-(2,5-dimethoxyphenyl)-3-(furan-2-carbonyl)-4-hydroxy-1-(pyridin-3-ylmethyl)-2H-pyrrol-5-one]
IC50: > 59.6 µM

COc1ccc(C(=O)C2C(=O)C(=O)N(Cc3ccco3)C2c2cc(OC)ccc2OC)cc1 (configuration not stated) [(4E)-5-(2,5-dimethoxyphenyl)-1-(2-furanylmethyl)-4-[hydroxy-(4-methoxyphenyl)methylidene]pyrrolidine-2,3-dione]
IC50: > 59.6 µM

O=C1C(=O)N(Cc2cccnc2)C(c2ccccn2)C1C(=O)c1cccs1 (configuration not stated) [3-hydroxy-5-(2-pyridinyl)-1-(3-pyridinylmethyl)-4-(2-thienylcarbonyl)-1,5-dihydro-2H-pyrrol-2-one]
IC50: > 59.6 µM

O=C1C(=O)N(Cc2cccnc2)C(c2ccccn2)C1C(=O)c1ccccc1 (configuration not stated) [(4Z)-4-[hydroxy(phenyl)methylene]-5-(2-pyridyl)-1-(3-pyridylmethyl)pyrrolidine-2,3-quinone]
IC50: > 59.6 µM

O=C1C(=O)N(Cc2cccnc2)C(c2ccccn2)C1C(=O)c1ccc(F)cc1 (configuration not stated) [(4Z)-4-[(4-fluorophenyl)-hydroxy-methylene]-5-(2-pyridyl)-1-(3-pyridylmethyl)pyrrolidine-2,3-quinone]
IC50: > 59.6 µM

COc1cc(OC)c(OC)cc1C=NNC(=O)Cc1c(C)[nH][nH]c1=O [MLS000555854]
IC50: > 59.6 µM
